Legend:
FAP Human Plasma = biological target: T1, FAP Human Plasma (Homo sapiens, UniProt Q12884); experiment: FAP plasma inhibition assay, human plasma; assay type: biochemical; details: human plasma dilution 1:40, Ala-Pro-AMC 75 μM; n = 1
T1 construct: Plasma (anticoagulant K2EDTA) was used as the enzyme source; tissue AZ Biobank; host or cells: pooled human plasma (K2EDTA)
T1 sequence (Q12884 24-760 limits assumed): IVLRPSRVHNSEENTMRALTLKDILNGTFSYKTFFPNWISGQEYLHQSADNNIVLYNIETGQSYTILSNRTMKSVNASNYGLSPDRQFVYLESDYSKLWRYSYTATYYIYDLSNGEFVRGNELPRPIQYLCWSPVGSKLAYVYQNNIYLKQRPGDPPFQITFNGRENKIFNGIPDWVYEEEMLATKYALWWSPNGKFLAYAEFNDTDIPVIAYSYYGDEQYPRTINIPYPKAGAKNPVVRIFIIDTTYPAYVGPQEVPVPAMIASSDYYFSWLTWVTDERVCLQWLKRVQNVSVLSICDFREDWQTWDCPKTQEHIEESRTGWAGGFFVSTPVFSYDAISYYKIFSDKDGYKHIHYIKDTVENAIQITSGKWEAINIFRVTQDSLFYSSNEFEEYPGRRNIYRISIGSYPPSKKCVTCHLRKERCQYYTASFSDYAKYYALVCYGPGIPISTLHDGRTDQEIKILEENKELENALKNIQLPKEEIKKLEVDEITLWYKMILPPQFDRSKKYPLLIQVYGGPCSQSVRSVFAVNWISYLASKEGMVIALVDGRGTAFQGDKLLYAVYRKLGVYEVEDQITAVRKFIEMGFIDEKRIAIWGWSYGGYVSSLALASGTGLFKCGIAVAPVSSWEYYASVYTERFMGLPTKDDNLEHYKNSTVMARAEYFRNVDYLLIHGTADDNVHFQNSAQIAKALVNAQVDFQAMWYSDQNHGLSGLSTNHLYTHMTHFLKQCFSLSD
Method: (§1) This assay was adapted from the method described in Example 89 for detection of FAP target engagement enzyme activity in plasma. Plasma (anticoagulant K2EDTA) was used as the enzyme source: Human plasma (Pooled from AZ Biobank) and Mouse plasma (AZ AST Biobank) and Cynomolgus plasma (BioIVT, #NHP00PLK2FNN, lot CYN222895). 384-Well black fluotrack PS plates (Greiner 781076) were used. 20 μL diluted plasma (Cynomolgus and Human plasma dilution 1:40, Mouse plasma dilution 1:67) in buffer (PBS, 0.1% BSA) was added to 0.6 μL compounds (in DMSO). Compounds were tested using 10 CR, 3 fold dilution series from 500 nM FAC. Two replicates for each assay point were run on the same plate. A fluorescence blank read was taken before substrate addition. Substrate, Ala-Pro-AMC (ARI-3144) stock solution (20 mM in DMSO) was diluted in buffer (PBS, 0.1% BSA) to 150 μM concentration and 20 μL added giving 75 μM FAC. Plates were incubated for 40 min at rt in the dark. The plates were read on a Beckman Paradigm® reader with excitation 360 nm and emission 465 nm. Data were analyzed in Excel (IDBS XLfit Add-In) using a one site dose response model (4-parameter logistic fit).

hFAP = biological target: T2, hFAP (Homo sapiens, UniProt Q12884); experiment: biochemical;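 further: substrate fluorescence read at room temperature in darkness, IC50 obtained by one-site dose-response fitting of percent inhibition against log concentration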
T2 sequence (Q12884 38-760): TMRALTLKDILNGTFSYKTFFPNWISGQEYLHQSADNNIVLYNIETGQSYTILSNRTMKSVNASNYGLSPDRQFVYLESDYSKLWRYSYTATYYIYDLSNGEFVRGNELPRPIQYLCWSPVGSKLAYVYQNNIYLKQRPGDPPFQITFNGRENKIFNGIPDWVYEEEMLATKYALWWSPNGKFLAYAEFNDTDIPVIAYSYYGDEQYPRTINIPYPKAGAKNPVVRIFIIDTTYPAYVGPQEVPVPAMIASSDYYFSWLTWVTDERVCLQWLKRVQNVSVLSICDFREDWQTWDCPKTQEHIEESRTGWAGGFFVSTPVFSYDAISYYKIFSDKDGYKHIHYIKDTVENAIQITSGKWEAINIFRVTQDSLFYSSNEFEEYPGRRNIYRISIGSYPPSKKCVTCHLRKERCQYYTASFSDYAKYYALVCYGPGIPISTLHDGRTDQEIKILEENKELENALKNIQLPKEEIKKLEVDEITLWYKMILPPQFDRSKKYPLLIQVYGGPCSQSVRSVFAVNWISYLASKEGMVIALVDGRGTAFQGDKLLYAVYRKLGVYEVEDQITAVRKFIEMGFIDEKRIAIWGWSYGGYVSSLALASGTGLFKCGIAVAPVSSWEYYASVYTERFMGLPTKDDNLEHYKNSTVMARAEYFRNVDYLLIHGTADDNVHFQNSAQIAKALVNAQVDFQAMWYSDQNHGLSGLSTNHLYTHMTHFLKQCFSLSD
Method: 384 low volume black plates (Greiner #784076) were used. 4 μL, 0.48 nM enzyme solution (100 mM Tris HCl, 100 mM NaCl, 0.05% Chaps, pH 7.4) was added to 40 nL compounds (in DMSO) at 10 CR, 3 fold dilution series from 50 μM FAC. Plates were incubated for 15 min at rt in dark. 4 μL, 40 μM substrate solution (100 mM Tris HCl, 100 mM NaCl, 0.05% Chaps, pH 7.4) was added to each well. Plates were centrifuged at 1000 rpm and incubated for 30 min at rt in dark. The plates were read on a PHERAstar® reader with excitation 340 nm and emission 460 nm. Data were analyzed in Genedata Screener®. IC50 values were determined by plotting % inhibition versus log compound concentration and using a one site dose response model.

FAP Mouse Plasma = biological target: T3, FAP Mouse Plasma (Mus musculus, UniProt P97321); experiment: FAP plasma inhibition assay, mouse plasma; assay type: biochemical; details: mouse plasma dilution 1:67, Ala-Pro-AMC 75 μM; n = 1
T3 construct: Plasma (anticoagulant K2EDTA) was used as the enzyme source; tissue AZ AST Biobank; host or cells: mouse plasma (K2EDTA)
T3 sequence (P97321 24-761 limits assumed): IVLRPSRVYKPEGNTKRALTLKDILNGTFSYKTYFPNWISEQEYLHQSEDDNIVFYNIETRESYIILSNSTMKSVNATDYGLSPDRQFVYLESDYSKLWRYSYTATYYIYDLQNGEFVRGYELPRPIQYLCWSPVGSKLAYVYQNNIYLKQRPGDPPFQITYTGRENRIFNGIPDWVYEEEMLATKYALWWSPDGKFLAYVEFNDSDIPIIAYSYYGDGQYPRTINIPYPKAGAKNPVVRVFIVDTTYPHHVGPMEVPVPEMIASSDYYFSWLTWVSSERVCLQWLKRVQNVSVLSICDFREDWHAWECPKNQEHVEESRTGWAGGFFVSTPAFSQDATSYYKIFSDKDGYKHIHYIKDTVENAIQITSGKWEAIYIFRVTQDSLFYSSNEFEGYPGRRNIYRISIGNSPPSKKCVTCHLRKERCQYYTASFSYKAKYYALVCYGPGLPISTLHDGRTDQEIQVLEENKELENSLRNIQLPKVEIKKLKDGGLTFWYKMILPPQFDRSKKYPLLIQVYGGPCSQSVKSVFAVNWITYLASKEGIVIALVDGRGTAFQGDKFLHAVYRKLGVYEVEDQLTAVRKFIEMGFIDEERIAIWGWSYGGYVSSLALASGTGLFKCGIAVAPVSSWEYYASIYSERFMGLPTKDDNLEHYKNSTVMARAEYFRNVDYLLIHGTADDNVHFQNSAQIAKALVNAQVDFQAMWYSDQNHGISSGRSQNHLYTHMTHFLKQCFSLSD
Method: as §1

IC50 (FAP Human Plasma)	IC50 (hFAP)	IC50 (FAP Mouse Plasma)	SMILES
0.5 nM	0.63 nM	1 nM	N#C[C@@H]1CSCN1C(=O)CNC(=O)c1ccnc2ccc(C3CCCCO3)cc12 (mixture of isomers) [Example 32, N-(2-((R)-4-Cyanothiazolidin-3-yl)-2-oxoethyl)-6-((RS)-tetrahydro-2H-pyran-2-yl)quinoline-4-carboxamide]
0.1 nM	–	0.2 nM	CO[C@H]1CC[C@H](c2ccc3nccc(C(=O)NCC(=O)N4CSC[C@H]4C#N)c3c2)CC1 (single isomer, unassigned) [Example 78, N-(2-((R)-4-Cyanothiazolidin-3-yl)-2-oxoethyl)-6-((1r,4R*)-4-methoxycyclohexyl)quinoline-4-carboxamide]
0.3 nM	0.23 nM	0.5 nM	N#C[C@@H]1CSCN1C(=O)CNC(=O)c1ccnc2ccc(C3CCOCC3)cc12 [Example 20, (R)—N-(2-(4-Cyanothiazolidin-3-yl)-2-oxoethyl)-6-(tetrahydro-2H-pyran-4-yl)quinoline-4-carboxamide]
0.5 nM	0.71 nM	0.7 nM	CCOC1(c2ccc3nccc(C(=O)NCC(=O)N4CSC[C@H]4C#N)c3c2)CCOCC1 [Example 23, (R)—N-(2-(4-Cyanothiazolidin-3-yl)-2-oxoethyl)-6-(4-ethoxytetrahydro-2H-pyran-4-yl)quinoline-4-carboxamide]
0.7 nM	0.43 nM	0.7 nM	N#C[C@@H]1CSCN1C(=O)CNC(=O)c1ccnc2ccc(C3(C#N)CC3)cc12 [Example 70, (R)-6-(1-Cyanocyclopropyl)-N-(2-(4-cyanothiazolidin-3-yl)-2-oxoethyl)quinoline-4-carboxamide]

The next lines start with the compound.

SMILES	IC50 (FAP Human Plasma)	IC50 (hFAP)	IC50 (FAP Mouse Plasma)
CC(C)(F)COc1ccc2nccc(C(=O)NCC(=O)N3CSC[C@H]3C#N)c2c1 [Example 3, (R)—N-(2-(4-Cyanothiazolidin-3-yl)-2-oxoethyl)-6-(2-fluoro-2-methylpropoxy)quinoline-4-carboxamide]	0.3 nM	–	0.5 nM
N#C[C@@H]1CSCN1C(=O)CNC(=O)c1ccnc2ccc(C3(O)CCOCC3)cc12 [Example 15, (R)—N-(2-(4-Cyanothiazolidin-3-yl)-2-oxoethyl)-6-(4-hydroxy-tetrahydro-2H-pyran-4-yl)quinoline-4-carboxamide]	0.3 nM	0.45 nM	0.5 nM
CC(C)(O)c1ccc2nccc(C(=O)NCC(=O)N3CSC[C@H]3C#N)c2c1 [Example 16, (R)—N-(2-(4-Cyanothiazolidin-3-yl)-2-oxoethyl)-6-(2-hydroxypropan-2-yl)quinoline-4-carboxamide]	0.9 nM	0.6 nM	0.9 nM
COC(C)(C)c1ccc2nccc(C(=O)NCC(=O)N3CSC[C@H]3C#N)c2c1 [Example 18, (R)—N-(2-(4-Cyanothiazolidin-3-yl)-2-oxoethyl)-6-(2-methoxypropan-2-yl)quinoline-4-carboxamide]	1.5 nM	0.81 nM	2.1 nM
